Measurements published in the supplement of paper PMC10331698.
± gives the standard deviation of the averaged measurements.

How the values were obtained:
Assay in all cases: level (log10 ratio to DMSO vehicle control); higher = higher biomarker level / cell amount than vehicle control
Settings in all cases: in DMSO
Methotrexate = compound: CN(Cc1cnc2nc(N)nc(N)c2n1)c1ccc(C(=O)N[C@@H](CCC(=O)O)C(=O)O)cc1 [Methotrexate]
Procedure: (§1)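 BioMAP Diversity Plus panel of 12 human primary cell co-culture systems (3C, 4H, LPS, SAg, BT, BF4T, BE3C, CASM3C, HDF3CGF, KF3CT, MyoF, Mphg). Compounds were added 1 h before stimulation and left for 24 h (MyoF 48 h; BT 72 h for soluble read-outs or 6 d for IgG). Biomarkers were read by ELISA, cytotoxicity by SRB, PBMC viability and proliferation by Alamar Blue. Each well value was divided by the mean of 8 DMSO control wells on the same plate and log10 transformed; duplicate blinded samples were tested at 4 concentrations.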

[1] = compound: O=C(Cl)C(F)(F)C(F)(F)C(F)(F)C(=O)Cl [Hexafluoroglutaryl chloride]
Procedure: as §1

Tetrafluorosuccinic acid = compound: O=C(O)C(F)(F)C(F)(F)C(=O)O [Tetrafluorosuccinic acid]
Procedure: as §1

[2] = compound: O=S(=O)(O)CCC(F)(F)C(F)(F)C(F)(F)C(F)(F)F [4:2 Fluorotelomer sulfonic acid]
Procedure: as §1

[3] = compound: O=S(=O)(OCC(F)(F)F)C(F)(F)C(F)(F)C(F)(F)C(F)(F)F [2,2,2-Trifluoroethyl perfluorobutanesulfonate]
Procedure: as §1

[4] = compound: OCCCCC(F)(F)C(F)(F)C(F)(F)C(F)(F)F [4:4 Fluorotelomer alcohol]
Procedure: as §1

Test System	level (log10) (Methotrexate; 1500 nM)	level (log10) (Methotrexate; 4400 nM)	level (log10) (Methotrexate; 13000 nM)	level (log10) (Methotrexate; 40000 nM)	level (log10) ([1]; 6700 nM)	level (log10) ([1]; 20000 nM)	level (log10) ([1]; 60000 nM)	level (log10) (Tetrafluorosuccinic acid; 6700 nM)	level (log10) (Tetrafluorosuccinic acid; 20000 nM)	level (log10) (Tetrafluorosuccinic acid; 60000 nM)	level (log10) ([2]; 6700 nM)	level (log10) ([2]; 20000 nM)	level (log10) ([2]; 60000 nM)	level (log10) ([3]; 6700 nM)	level (log10) ([3]; 20000 nM)	level (log10) ([3]; 60000 nM)	level (log10) ([4]; 6700 nM)	level (log10) ([4]; 20000 nM)	level (log10) ([4]; 60000 nM)
BF4T:tPA	0.018 ± 0.0071	-0.0155 ± 0.011	0.005 ± 0.014	0.0155 ± 0.018	0.0095 ± 0.0078	-0.019 ± 0.0099	-0.0095 ± 0.019	-0.0145 ± 0.0078	-0.006 ± 0.034	-0.025 ± 0.013	-0.0295 ± 0.023	-0.0295 ± 0.03	0.0055 ± 0.06	0.0025 ± 0.0021	0.011 ± 0.023	0.015 ± 0.0028	-0.0095 ± 0.011	-0.01	0.0205 ± 0.036
BF4T:Keratin 8/18	0.005 ± 0.038	-0.0385 ± 0.005	-0.006 ± 0.054	0.0155 ± 0.028	-0.0245 ± 0.053	-0.018 ± 0.03	-0.0345 ± 0.035	0.013 ± 0.018	-0.0115 ± 0.037	-0.0165 ± 0.03	0.0015 ± 0.005	-0.0195 ± 0.025	0.017 ± 0.024	0.002 ± 0.016	-0.0025 ± 0.016	-0.0335 ± 0.0078	0.012 ± 0.0028	-0.001 ± 0.0014	0.009 ± 0.034
4H:SRB	0.0105 ± 0.0078	-0.0075 ± 0.011	0.0035 ± 0.00071	0.007 ± 0.0014	0 ± 0.0014	0.0055 ± 0.015	0 ± 0.014	-0.0005 ± 0.023	0.001 ± 0.0085	-0.0185 ± 0.011	-0.0035 ± 0.00071	-0.0055 ± 0.005	-0.0035 ± 0.0092	-0.0025 ± 0.00071	-0.0085 ± 0.011	-0.0015 ± 0.023	-0.003 ± 0.013	0 ± 0.018	-0.001 ± 0.023
BF4T:CD54/ICAM-1	0.001 ± 0.0099	-0.0135 ± 0.019	0.009 ± 0.0085	0.0095 ± 0.011	0.0065 ± 0.0064	-0.004	0.016 ± 0.017	-0.0145 ± 0.013	-0.018 ± 0.0042	-0.0295 ± 0.0021	-0.0085 ± 0.011	-0.0125 ± 0.0092	0.006 ± 0.038	-0.0115 ± 0.016	-0.014 ± 0.037	-0.0295 ± 0.016	-0.0055 ± 0.0035	-0.0085 ± 0.011	0.0025 ± 0.0021
BF4T:IL-1alpha	0.0145 ± 0.00071	-0.037 ± 0.0042	-0.012 ± 0.031	0.0045 ± 0.0021	-0.014 ± 0.04	-0.015 ± 0.018	0.0015 ± 0.0064	0.023 ± 0.02	0.0145 ± 0.025	0.0335 ± 0.016	-0.0025 ± 0.015	-0.013 ± 0.0028	0.0135 ± 0.029	0.0195 ± 0.023	0.0085 ± 0.026	0.0075 ± 0.015	0.0075 ± 0.013	-0.0105 ± 0.0035	-0.001 ± 0.017
BF4T:uPA	0.013 ± 0.0085	0.0115 ± 0.0078	0.005 ± 0.03	0.009 ± 0.028	-0.02 ± 0.048	-0.004 ± 0.028	-0.008 ± 0.013	-0.004 ± 0.0014	-0.0185 ± 0.0064	-0.0095 ± 0.0092	-0.013 ± 0.02	-0.013 ± 0.0085	0.0105 ± 0.0078	-0.0085 ± 0.018	-0.008 ± 0.035	-0.015 ± 0.023	-0.0125 ± 0.0078	-0.015 ± 0.0028	0.0105 ± 0.04
LPS:CD62E/E-Selectin	-0.01 ± 0.024	-0.0185 ± 0.0021	0.005 ± 0.0014	0.005 ± 0.025	0.0025 ± 0.0035	0.003 ± 0.02	0.038 ± 0.031	0.0155 ± 0.036	0.003 ± 0.011	0.0275 ± 0.013	0.027 ± 0.028	0.027 ± 0.041	0.0285 ± 0.066	0.0025 ± 0.019	-0.004 ± 0.02	-0.0795 ± 0.043	-0.0015 ± 0.033	-0.0135 ± 0.028	-0.012 ± 0.0099
LPS:CD142/Tissue Factor	-0.0105 ± 0.018	-0.0155 ± 0.039	0.022 ± 0.076	-0.0035 ± 0.0021	0.0275 ± 0.018	-0.0025 ± 0.044	-0.0185 ± 0.0035	-0.001 ± 0.047	-0.0155 ± 0.079	0.014 ± 0.037	-0.051 ± 0.014	-0.0105 ± 0.016	-0.0015 ± 0.016	0.0325 ± 0.12	-0.069 ± 0.13	-0.153 ± 0.13	0.003 ± 0.027	0.031 ± 0.027	-0.0095 ± 0.023
LPS:CD106/VCAM-1	0.0075 ± 0.03	-0.0065 ± 0.011	0.0085 ± 0.00071	-0.0145 ± 0.005	-0.0235 ± 0.011	-0.0135 ± 0.012	-0.011 ± 0.013	-0.0245 ± 0.026	-0.007 ± 0.0057	0.002 ± 0.018	-0.0065 ± 0.013	-0.006 ± 0.027	-0.0125 ± 0.059	0.0055 ± 0.052	-0.0075 ± 0.015	-0.076 ± 0.013	-0.001 ± 0.011	0.0045 ± 0.018	0.003 ± 0.02
4H:CD106/VCAM-1	-0.0045 ± 0.018	-0.0095 ± 0.0021	0.005 ± 0.028	-0.0005 ± 0.011	0.0015 ± 0.0092	-0.005 ± 0.021	0.001 ± 0.011	0.029 ± 0.033	0.0065 ± 0.005	0.0485 ± 0.018	-0.039 ± 0.037	0.014 ± 0.0057	-0.0035 ± 0.023	-0.004 ± 0.025	-0.008 ± 0.014	0.0015 ± 0.0021	0 ± 0.0057	-0.01 ± 0.0028	0.005 ± 0.0028
BE3C:CD54/ICAM-1	0.021 ± 0.014	-0.002 ± 0.013	0.013 ± 0.031	0.0065 ± 0.035	0.002 ± 0.0071	-0.002 ± 0.017	0.0075 ± 0.025	0.0015 ± 0.025	0.0065 ± 0.00071	0.0115 ± 0.00071	-0.004 ± 0.0085	-0.009 ± 0.014	-0.0155 ± 0.0021	-0.002 ± 0.0071	-0.013 ± 0.0071	-0.018 ± 0.0057	0.0085 ± 0.015	-0.0025 ± 0.023	-0.0045 ± 0.0064
LPS:CD40	-0.033 ± 0.018	-0.0475 ± 0.011	-0.009 ± 0.028	-0.0155 ± 0.03	-0.011 ± 0.057	0.0315 ± 0.032	-0.0375 ± 0.063	-0.016 ± 0.0028	-0.0185 ± 0.0092	-0.007 ± 0.014	0.0175 ± 0.079	0.0505 ± 0.043	0.032 ± 0.071	-0.014 ± 0.017	-0.0495 ± 0.0035	-0.104 ± 0.064	-0.0175 ± 0.063	-0.0095 ± 0.028	-0.042 ± 0.027
4H:VEGFR2	-0.0035 ± 0.04	-0.028 ± 0.035	-0.014 ± 0.017	0.022 ± 0.0057	-0.0325 ± 0.029	0.018 ± 0.031	0.047 ± 0.035	-0.032 ± 0.014	-0.027	0.007 ± 0.11	-0.103 ± 0.042	-0.0525 ± 0.071	0.025 ± 0.075	-0.0285 ± 0.03	0.0005 ± 0.019	0.025 ± 0.0014	-0.0535 ± 0.036	-0.0665 ± 0.005	-0.0205 ± 0.047
BF4T:CXCL8/IL-8	0.035 ± 0.027	0.027 ± 0.071	0.041 ± 0.057	0.0365 ± 0.12	0.045 ± 0.086	0.037 ± 0.072	0.048 ± 0.089	0.0235 ± 0.0064	0.016 ± 0.038	0.029 ± 0.023	-0.001 ± 0.052	0.0065 ± 0.016	0.001 ± 0.033	0.0295 ± 0.0064	0.017	0.0385 ± 0.044	-0.013 ± 0.021	0.018 ± 0.0057	0.0185 ± 0.005
BF4T:PAI-I	-0.002 ± 0.014	-0.0075 ± 0.0078	-0.0065 ± 0.0078	-0.002 ± 0.0071	-0.01 ± 0.014	-0.002 ± 0.0042	-0.0005 ± 0.005	-0.0075 ± 0.012	-0.0025 ± 0.018	0.0035 ± 0.00071	-0.0055 ± 0.005	-0.007 ± 0.0071	-0.0035 ± 0.015	-0.0035 ± 0.0035	-0.0075 ± 0.00071	-0.0025 ± 0.0021	0.0065 ± 0.0078	0.011 ± 0.0099	0.0125 ± 0.012
SAg:CD62E/E-Selectin	0.007 ± 0.011	-0.0015 ± 0.032	0.019 ± 0.016	-0.0075 ± 0.018	-0.018 ± 0.03	-0.024 ± 0.014	-0.012 ± 0.0042	-0.015	-0.003 ± 0.016	0.0035 ± 0.0035	-0.016 ± 0.0085	-0.011 ± 0.0071	0.009 ± 0.0071	-0.0065 ± 0.015	0.006 ± 0.018	0.03 ± 0.013	-0.001 ± 0.0014	-0.01 ± 0.0071	-0.014 ± 0.028
